The assay concerns HRE-bla ME-180 cells. The experiment in a line: Reporter gene assay (HRE-bla ME-180 HIF reporter, GeneBLAzer). Conditions: for EC50: 24 hour normoxia. It is filed as cell-based, human. In outline:
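A FRET β-lactamase readout of HIF transcription was used. After compound treatment in 0.3% DMSO/media under normoxic conditions, 20 μl of 6× LiveBLAzer-FRET B/G (CCF4-AM) substrate was added. Plates sat 3 hr at room temperature in the dark and were read at 409 Ex/460Em and 409Ex/530Em on a Synergy 2. Inhibition was compared against DMSO vehicle controls, with chetomin as positive control.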

Bridge positions count the residues as written; N and C are the ends. Square brackets hold non-standard residues; d marks the D form. Peptide text beside a SMILES is read from it. R8 = C=CCCCCCC[C@@](C)(N)C(=O)O; R5 = C=CCCC[C@@](C)(N)C(=O)O; S5 = C=CCCC[C@](C)(N)C(=O)O; Nle = CCCC[C@H](N)C(=O)O

As for `CC[C@H](C)[C@H](NC(=O)[C@H](Cc1ccccc1)NC(C)=O)C(=O)N[C@@H](CC(=O)O)C(=O)N[C@@H](CCC(=O)O)C(=O)N[C@@H](CCC(=O)O)C(=O)N[C@H](C(=O)N[C@]1(C)CCCCCCC=CCCC[C@@](C)(C(=O)NCC(=O)N[C@@H](CC(C)C)C(=O)N[C@@H](CC(=O)O)C(=O)N[C@@H](CCCNC(=N)N)C(=O)N[C@H](C(=O)N[C@@H](CCCCN)C(=O)N[C@@H](CCC(=O)O)C(=O)N[C@@H](CC(C)C)C(=O)N2CCC[C@H]2C(=O)N[C@@H](CCC(=O)O)C(=O)N[C@@H](CC(C)C)C(=O)N[C@@H](Cc2c[nH]c3ccccc23)C(=O)N[C@@H](CC(C)C)C(N)=O)[C@@H](C)CC)NC(=O)[C@H](CCC(=O)O)NC(=O)[C@H]([C@@H](C)CC)NC(=O)[C@H](C(C)C)NC(=O)[C@H](CC(C)C)NC(=O)[C@H](CO)NC(=O)[C@H](CCSC)NC1=O)C(C)C` [SP-84] (Ac-FIDEEV[R8]MSLVIE[S5]GLDRIKELPELWL-NH2; staple 7-14), the “18 h Avg % max inhibition at top conc (HIF Rptr-24 hrs normoxia) (μM)” value (shortened to “18 h Avg % max inhibition at top conc”) is listed as “+ (<10: +)” and the EC50 was more than 30 µM.
As to `CC[C@H](C)[C@H](NC(C)=O)C(=O)N[C@@H](CC(=O)O)C(=O)N[C@@H](CCC(=O)O)C(=O)N[C@@H](CCC(=O)O)C(=O)N[C@H](C(=O)N[C@@H](CC(C)C)C(=O)N[C@@H](CCSC)C(=O)N[C@@]1(C)CCCC=CCCC[C@@](C)(C(=O)N[C@@H](CCSC)C(=O)NCC(=O)N[C@@H](CC(C)C)C(=O)N[C@@H](CC(=O)O)C(=O)N[C@@H](CCCNC(=N)N)C(=O)N[C@H](C(=O)N[C@@H](CCCCN)C(=O)N[C@@H](CCC(=O)O)C(=O)N[C@@H](CC(C)C)C(=O)N2CCC[C@H]2C(=O)N[C@@H](CCC(=O)O)C(=O)N[C@@H](CC(C)C)C(=O)N[C@@H](Cc2c[nH]c3ccccc23)C(=O)N[C@@H](CC(C)C)C(N)=O)[C@@H](C)CC)NC(=O)[C@H]([C@@H](C)CC)NC(=O)[C@H](C(C)C)NC(=O)[C@H](CC(C)C)NC1=O)C(C)C` [SP-86] (Ac-IDEEVLM[S5]LVI[S5]MGLDRIKELPELWL-NH2; staple 8-12), the “18 h Avg % max inhibition at top conc” value is reported as “++++ (≥50: ++++)” and the EC50 lay within 5 to 15 µM.
Regarding `CC[C@H](C)[C@H](NC(=O)[C@H](CCCNC(=N)N)NC(=O)[C@H](CC(=O)O)NC(=O)[C@H](CC(C)C)NC(=O)CNC(=O)[C@H](CCSC)NC(=O)[C@]1(C)CCCC=CCCC[C@](C)(NC(=O)[C@H](CCSC)NC(=O)[C@H](CC(C)C)NC(=O)[C@@H](NC(=O)[C@H](CCC(=O)O)NC(=O)[C@H](CCC(=O)O)NC(=O)[C@H](CC(=O)O)NC(C)=O)C(C)C)C(=O)N[C@@H](CC(C)C)C(=O)N[C@@H](C(C)C)C(=O)N[C@@H]([C@@H](C)CC)C(=O)N1)C(=O)N[C@@H](CCCCN)C(=O)N[C@@H](CCC(=O)O)C(=O)N[C@@H](CC(C)C)C(=O)N1CCC[C@H]1C(=O)N[C@@H](CCC(=O)O)C(=O)N[C@@H](CC(C)C)C(=O)N[C@@H](Cc1c[nH]c2ccccc12)C(=O)N[C@@H](CC(C)C)C(N)=O` [SP-87] (Ac-DEEVLM[S5]LVI[S5]MGLDRIKELPELWL-NH2; staple 7-11), the “18 h Avg % max inhibition at top conc” value was “++++ (≥50: ++++)” and the EC50 is 15 to 30 µM.
On to `CC[C@H](C)[C@H](NC(=O)[C@H](CCCNC(=N)N)NC(=O)[C@H](CC(=O)O)NC(=O)[C@H](CC(C)C)NC(=O)CNC(=O)[C@H](CCSC)NC(=O)[C@]1(C)CCCC=CCCC[C@](C)(NC(=O)[C@H](CCSC)NC(=O)[C@H](CC(C)C)NC(=O)[C@@H](NC(=O)[C@H](CCC(=O)O)NC(C)=O)C(C)C)C(=O)N[C@@H](CC(C)C)C(=O)N[C@@H](C(C)C)C(=O)N[C@@H]([C@@H](C)CC)C(=O)N1)C(=O)N[C@@H](CCCCN)C(=O)N[C@@H](CCC(=O)O)C(=O)N[C@@H](CC(C)C)C(=O)N1CCC[C@H]1C(=O)N[C@@H](CCC(=O)O)C(=O)N[C@@H](CC(C)C)C(=O)N[C@@H](Cc1c[nH]c2ccccc12)C(=O)N[C@@H](CC(C)C)C(N)=O` [SP-89] (Ac-EVLM[S5]LVI[S5]MGLDRIKELPELWL-NH2; staple 5-9), for which the “18 h Avg % max inhibition at top conc” value is reported as “+++ (≤25 but <50: +++)” and the EC50 is 5 to 15 µM.
Take `CCCC[C@H](NC(=O)[C@H](CCC(=O)O)NC(=O)[C@@H](NC(=O)[C@@H](NC(=O)[C@H](CC(C)C)NC(=O)[C@]1(C)CCCC=CCCC[C@](C)(NC(=O)[C@H](CCC(=O)O)NC(=O)[C@H](CC(=O)O)NC(=O)[C@@H](NC(=O)[C@H](Cc2ccccc2)NC(C)=O)[C@@H](C)CC)C(=O)N[C@@H](C(C)C)C(=O)N[C@@H](CC(C)C)C(=O)N[C@@H](CCCC)C(=O)N1)C(C)C)[C@@H](C)CC)C(=O)N[C@@H](C)C(=O)N[C@@H](CC(C)C)C(=O)N[C@@H](CC(=O)O)C(=O)N[C@@H](CCCNC(=N)N)C(=O)N[C@H](C(=O)N[C@@H](CCCCN)C(=O)N[C@@H](CCC(=O)O)C(=O)N[C@@H](CC(C)C)C(=O)N1CCC[C@H]1C(=O)N[C@@H](CCC(=O)O)C(=O)N[C@@H](CC(C)C)C(=O)N[C@@H](Cc1c[nH]c2ccccc12)C(=O)N[C@@H](CC(C)C)C(N)=O)[C@@H](C)CC` [SP-106] (Ac-FIDE[S5]VL[Nle][S5]LVIE[Nle]ALDRIKELPELWL-NH2; staple 5-9): the EC50 is more than 30 µM.
Regarding `CCCC[C@H](NC(=O)[C@H](CC(C)C)NC(=O)[C@@H](NC(=O)[C@H](CCC(=O)O)NC(=O)[C@H](CCC(=O)O)NC(=O)[C@H](CC(=O)O)NC(=O)[C@@H](NC(=O)[C@H](Cc1ccccc1)NC(C)=O)[C@@H](C)CC)C(C)C)C(=O)N[C@]1(C)CCCC=CCCC[C@](C)(C(=O)N[C@@H](CCCC)C(=O)N[C@@H](C)C(=O)N[C@@H](CC(C)C)C(=O)N[C@@H](CC(=O)O)C(=O)N[C@@H](CCCNC(=N)N)C(=O)N[C@H](C(N)=O)[C@@H](C)CC)NC(=O)[C@H]([C@@H](C)CC)NC(=O)[C@H](C(C)C)NC(=O)[C@H](CC(C)C)NC1=O` [SP-296] (Ac-FIDEEVL[Nle][R5]LVI[R5][Nle]ALDRI-NH2; staple 9-13), the “18 h Avg % max inhibition at top conc” value is “++++ (≥50: ++++)” and the EC50 was not above 5 µM.
